From patent US20230346831A1, “METHODS FOR TREATING […] USING LOW DOSE CARBON MONOXIDE” (priority 2020, published 2023)
“Also recorded” adds a separate entry of the source.

Assays:
Assay type in all cases: cell-based, human
[1] = tested on: MDA-MB-231 cells; assay: proliferation assay (crystal violet, OD595); settings: 16 hours
Description: (§1) Proliferation of different cancer cells under control air or 250 ppm CO treatment with or without supplement of 30 µM hemin was determined. Indicated cell lines cell lines were seeded in the 24-well plate in normal growth media. 16 hours later, cells were fixed, stained with crystal violet, and lysed by methanol. OD595 were measured from triplicates of each cell type. Error bars represent SEM. *: P < 0.05, two-sided t-test. Scale bar, 100 µm.
(§2) 6.5 mm Transwell with 8.0 µm Pore Polycarbonate Membrane Insert (Corning, NY, Cat. No. 3422) was used for the cell migration assay (FIG. 1J). After 16 hours of incubation, cells migrated to the opposite side of the upper chambers were fixed with 4% paraformaldehyde, stained with 0.2% crystal violet for 30 min and counted in five fields under × 20 magnification. In parallel, cells were seeded on 24-well plates for proliferation assay. Cells for proliferation control were fixed with 4% paraformaldehyde, stained with 0.2% crystal violet for 30 min and lysed with methanol to release the crystal violet as described by M. Feoktistova, P. Geserick, & M. Leverkus, Cold Spring Harb Protoc 2016, pdb prot087379 (2016). The optical density was measured at 595 nm (OD595). To supplement heme/hemin in the transwell migration assay, 30 µM hemin (MedChemExpress, Monmouth Junction, NJ, Cat. No. HY-19424) was added to both the cell suspension in the upper chambers and the bottom wells.
To examine whether CO has an effect on tumor cell migration, in vitro transwell migration assays were performed. […] Cell migration through the transwell membrane along a serum gradient (Table 1) after 16 hours in the presence or absence of 250 ppm CO were measured.
5 × 10^4 MDA-MB-231-TGL cells were seeded in the upper chamber of 8-µm porous polycarbonate membranes with DMEM containing 0% FBS, 0.2 mM L-glutamine and 1% penicillin/streptomycin. […] The optical density was measured at 595 nm (OD595).

[2] = tested on: cancer cells across different cancer types; assay: in vitro transwell migration assay, statements across cancer types; settings: 16 hours
Description: Migration of different cancer cells under control air or 250 ppm CO treatment with or without supplement of 30 µM hemin was determined using in vitro transwell migration chamber with a serum gradient. Indicated cell lines were seeded into the transwell inserts. 16 hours later, cells on the top of the upper chambers were removed, and cells on the bottom surface of the transwell inserts were fixed, stained with crystal violet, and counted from eight randomly picked fields in three independent experiments. Error bars represent SEM. *: P < 0.05, two-sided t-test. Scale bar, 100 µm. […]
(§3) 6.5 mm Transwell with 8.0 µm Pore Polycarbonate Membrane Insert (Corning, NY, Cat. No. 3422) was used for the cell migration assay (FIG. 1J). After 16 hours of incubation, cells migrated to the opposite side of the upper chambers were fixed with 4% paraformaldehyde, stained with 0.2% crystal violet for 30 min and counted in five fields under × 20 magnification. […] The optical density was measured at 595 nm (OD595). […]
(§4) To investigate whether 250 ppm CO induces hypoxia, HiF1α protein levels in low-dose CO-treated MCF7/TGL and MDA-MB-231/TGL cells were examined. […] To assess the intracellular heme levels affected by low-dose CO treatment, oxidized heme levels in the form of hemin (Fe^3+ state) were measured because free heme (Fe^2+ state) is readily oxidized and cannot be measured. […]

[3] = tested on: HCC1954 cells; assay: proliferation assay (crystal violet, OD595); settings: 16 hours
Description: as §1, §2
(§5) To examine whether CO has an effect on tumor cell migration, in vitro transwell migration assays were performed. Various human cancer cell lines, including 3 types of breast cancer (ER^+: MCF7 cells, HER2^+: HCC1954 cells, triple-negative breast cancer (TNBC): MDA-MB-231 cells), pancreatic ductal adenocarcinoma (PDAC) (8988T cells), pancreatic neuroendocrine tumor (PNET) (CM cells), colon cancer (SW480 cells), prostate cancer (22Rv1 cells), liver cancer (HepG2 cells), and lung cancer (H1975 cells) were seeded in the upper chamber of 8-µm porous polycarbonate membranes. Cell migration through the transwell membrane along a serum gradient (Table 1) after 16 hours in the presence or absence of 250 ppm CO were measured.

[4] = tested on: CM cells; assay: proliferation assay (crystal violet, OD595); settings: 16 hours
Description: as §1, §2, §5

[5] = tested on: H1975 cells; assay: proliferation assay (crystal violet, OD595); settings: 16 hours
Description: as §1, §2, §5

[6] = tested on: MCF7 cells; assay: proliferation assay (crystal violet, OD595); settings: 16 hours
Description: as §1, §2, §5

[7] = tested on: 22Rv1 cells; assay: proliferation assay (crystal violet, OD595); settings: 16 hours
Description: as §1, §2, §5

[8] = tested on: SW480 cells; assay: proliferation assay (crystal violet, OD595); settings: 16 hours
Description: as §1, §2, §5

[9] = tested on: 8988T cells; assay: proliferation assay (crystal violet, OD595); settings: 16 hours
Description: as §1, §2, §5

[10] = tested on: HepG2 cells; assay: proliferation assay (crystal violet, OD595); settings: 16 hours
Description: as §1, §2, §5

[11] = tested on: various cancer cell lines; assay: proliferation assay, statements across cancer types
Description: as §1
as §3, with “magnification. In parallel, cells were seeded on 24-well plates for proliferation assay.” for “magnification.”
as §4

[12] = 30 µM hemin, with or without 250 ppm CO

[C-]#[O+] [CO, Carbon monoxide]
inhibitory effect on MDA-MB-231 cell proliferation by seeding density ([1]; CO, higher density (6.25 × 10^4 or 12.5 × 10^4 cells per 24-well) compared with lower density (3.125 × 10^4 cells per 24-well)): greater inhibitory effect
cell proliferation ([1]; MDA-MB-231 cells, 250 ppm CO, vs control air): did not affect
cancer cell migration across different cancer types ([2]; 250 ppm CO, transwell with serum gradient, vs control air): decreases
cell proliferation ([3]; 250 ppm CO, vs control air): did not affect
cell proliferation ([4]; 250 ppm CO, vs control air): did not affect
cell proliferation ([5]; 250 ppm CO, vs control air): did not affect
cell proliferation ([6]; MCF7 cells, 250 ppm CO, vs control air): did not affect
cell proliferation ([7]; 250 ppm CO, vs control air): did not affect
cell proliferation ([8]; 250 ppm CO, vs control air): did not affect
cell proliferation ([9]; 250 ppm CO, vs control air): did not affect
cell proliferation ([10]; 250 ppm CO, vs control air): did not affect
cancer cell proliferation across different cancer types ([11]; 250 ppm CO for 16 hours, vs control air): does not affect

Hemin [reference compound]
cancer cell proliferation with hemin supplement ([1]; MDA-MB-231/TGL cells, 30 µM hemin, with or without 250 ppm CO): did not alter
cell migration inhibited by CO (rescue by hemin supplement) ([2]; 30 µM hemin + 250 ppm CO, transwell, cell lines not named at the place (FIGS. 1A-1I; 1C-1E)): partially restored; also recorded: rescued
cancer cell proliferation with hemin supplement [3, 12]: did not alter
cancer cell proliferation with hemin supplement [4, 12]: did not alter
cancer cell proliferation with hemin supplement [5, 12]: did not alter
cancer cell proliferation with hemin supplement ([6]; MCF7/TGL cells, 30 µM hemin, with or without 250 ppm CO): did not alter
cancer cell proliferation with hemin supplement [7, 12]: did not alter
cancer cell proliferation with hemin supplement [8, 12]: did not alter
cancer cell proliferation with hemin supplement [9, 12]: did not alter
cancer cell proliferation with hemin supplement [10, 12]: did not alter
cell proliferation of various cancer cell lines with hemin ([11]; 30 µM hemin in the medium (FIGS. 2C-2E)): slightly increased
